These results are taken from patent US12351570B2 (MERCK PATENT GMBH, priority 2018, dated 2025).

Broadly, the IC50 is the concentration that inhibits the measured activity by half. Higher therefore signals a need for much substance.

For this experiment, the system named is MDA-MB-231 cells. The experiment can be described thus: Extracellular lactate production inhibition after 4 h, MDA-MB-231. The following applies: Homo sapiens, MDA-MB-231.
On to `Cc1ccc2cccnc2c1S(=O)(=O)Nc1c(F)cccc1C#Cc1ccc(C(=O)O)nc1` [Compound 106, 5-{2-[3-fluoro-2-(7-methylquinoline-8-sulfonamido)phenyl]ethynyl}pyridine-2-carboxylic acid], for which the concentration for half-maximal inhibition (IC50) is 1000 to 100000 nM.
For `COC(=O)c1ccc(C#Cc2ccccc2NS(=O)(=O)c2cnn(-c3ccccc3)c2)cn1` [Compound 136, methyl 5-{2-[2-(1-phenyl-1H-pyrazole-4-sulfonamido)phenyl]ethynyl}pyridine-2-carboxylate] the value was 1000 to 100000 nM; for `Cc1ccc2cccnc2c1S(=O)(=O)Nc1ccccc1C#Cc1cnc2c(c1)COC2=O` [Compound 401, 7-methyl-N-[2-(2-{7-oxo-5H,7H-furo[3,4-b]pyridin-3-yl}ethynyl)phenyl]quinoline-8-sulfonamide], 10 to 100 nM.
Then `COc1ccccc1-c1ccc(CN(C=O)c2ccccc2C#Cc2ccc(C(=O)O)nc2)cc1` [Compound 191, 5-(2-{2-[N-({2′-methoxy-[1,1′-biphenyl]-4-yl}methyl)formamido]phenyl}ethynyl)-pyridine-2-carboxylic acid], with 10 to 100 nM.
In turn, `COc1ccc2cccnc2c1S(=O)(=O)Nc1ccccc1C#Cc1ccc(C(=O)O)nc1` [Compound 347, 5-{2-[2-(7-methoxyquinoline-8-sulfonamido)phenyl]ethynyl}pyridine-2-carboxylic acid] yielded an IC50 of 100 to 1000 nM.
Then `Cc1ccc(C#Cc2ccc(C(=O)O)cc2)c(NS(=O)(=O)c2ccc3ccccc3c2)n1` [Compound 41, 4-{2-[6-methyl-2-(naphthalene-2-sulfonamido)pyridin-3-yl]ethynyl}benzoic acid], with 100 to 1000 nM.
Then `COc1cc(C(=O)O)ncc1C#Cc1cc(Cl)ccc1NS(=O)(=O)c1ccc(OC)c2cccnc12` [Compound 360, 5-{2-[5-chloro-2-(5-methoxyquinoline-8-sulfonamido)phenyl]ethynyl}-4-methoxypyridine-2-carboxylic acid], with 1 to 10 nM; and `Cc1ccc(C#Cc2ccc(C(=O)O)cc2)c(NS(=O)(=O)c2ccc3ccccc3c2)c1` [Compound 46, 4-{2-[4-methyl-2-(naphthalene-2-sulfonamido)phenyl]ethynyl}benzoic acid], with 100 to 1000 nM; and `Cc1ccc2cccnc2c1S(=O)(=O)Nc1ccc(F)cc1C#Cc1ccc(C(=O)O)nc1` [Compound 112, 5-{2-[5-fluoro-2-(7-methylquinoline-8-sulfonamido)phenyl]ethynyl}pyridine-2-carboxylic acid], with 10 to 100 nM.
Then `COc1ccc(S(=O)(=O)Nc2ccc(F)cc2C#Cc2ccc(C(=O)NC#N)nc2)c2ccccc12` [Compound 256, N-cyano-5-{2-[5-fluoro-2-(4-methoxynaphthalene-1-sulfonamido)-phenyl]ethynyl}pyridine-2-carboxamide], with 1000 to 100000 nM; and `COc1ccc(S(=O)(=O)Nc2ccccc2C#Cc2ccc(C(=O)NO)nc2)c2ncccc12` [Compound 216, N-hydroxy-5-{2-[2-(5-methoxyquinoline-8-sulfonamido)phenyl]ethynyl}pyridine-2-carboxamide], with 100 to 1000 nM.
As for `COc1ccc(S(=O)(=O)Nc2c(C)cc(Cl)cc2C#Cc2ccc(C(=O)O)nc2)c2ncccc12` [Compound 346, 5-{2-[5-chloro-2-(5-methoxyquinoline-8-sulfonamido)-3-methylphenyl]-ethynyl}pyridine-2-carboxylic acid], the half-maximal inhibitory concentration (IC50) lay in the range of 100 to 1000 nM.
On to `O=C(O)c1ccc(C#Cc2ccc(C(F)(F)F)cc2NS(=O)(=O)c2ccc3ccccc3c2)cc1` [Compound 17, 4-{2-[2-(naphthalene-2-sulfonamido)-4-(trifluoromethyl)phenyl]ethynyl}benzoic acid], for which the IC50 was 100 to 1000 nM.
`COc1ccc(C#Cc2ccc(C(=O)O)cc2)c(NS(=O)(=O)c2ccc3ccccc3c2)c1` [Compound 19, 4-{2-[4-methoxy-2-(naphthalene-2-sulfonamido)phenyl]ethynyl}benzoic acid] had a concentration for half-maximal inhibition (IC50) of 100 to 1000 nM.
